In patent publication US20260207576A1 (priority 2024, published 2026) one finds IC50 data, which are given here for one compound.

The term IC50 denotes the concentration needed to halve the response being measured.

The target in the test is Stx2A1 (Escherichia phage 933W, UniProt P09385). The class given is biochemical, E. coli (STEC). The following applies: read-out: IC50 against Stx2A1.
Sequence of Stx2A1 (P09385 23-272 limits assumed): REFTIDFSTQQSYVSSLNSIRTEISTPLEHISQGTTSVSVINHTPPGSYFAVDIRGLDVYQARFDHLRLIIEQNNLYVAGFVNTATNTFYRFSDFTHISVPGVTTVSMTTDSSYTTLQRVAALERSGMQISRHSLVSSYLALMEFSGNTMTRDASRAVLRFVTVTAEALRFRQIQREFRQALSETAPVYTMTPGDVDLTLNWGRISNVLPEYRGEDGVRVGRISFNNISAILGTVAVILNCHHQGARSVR

In the case of `CC1(C)Cc2cc(C(=O)O)sc2-c2ccccc21` [RU-NT-206, 5,5-Dimethyl-4,5-dihydronaphtho[1,2-b]thiophene-2-carboxylic acid], the IC50 was 83 ± 30 µM.
